Data reported in patent US20100285959A1, “HERBICIDAL MIXTURES” (priority 2006, published 2010).

Tests used:
[1] = test system: giant foxtail (SETFA); assay: Test 1 field trial, preemergence; type: in vivo, Setaria faberi
Source text: (§1) Corn seeds (hybrid ‘Pioneer 34N43’) were planted in mid spring season, 3.8 cm deep in a silt loam soil having 4.6% organic matter and a pH of 6. Plots were 10.7 m long by 1.5 m wide with rows spaced 76 cm apart. Seeds were spaced 18 cm apart within the rows. The field was managed using conventional tillage practices. […] Results are summarized in Table 1 and are the means of the three replicates. […] Colby's Equation (Colby, S. R. “Calculating Synergistic and Antagonistic Responses of Herbicide Combinations,” Weeds, 15(1), pp 20-22 (1967)) calculates the expected additive effect of herbicidal mixtures, and for two active ingredients is of the form:
(§2) Pa+b=Pa+Pb−(PaPb/100) • wherein Pa+b is the percentage effect of the mixture expected from additive contribution of the individual components, • Pa is the observed percentage effect of the first active ingredient at the same use rate as in the mixture, and • Pb is the observed percentage effect of the second active ingredient at the same use rate as in the mixture.

[2] = test system: ivyleaf morningglory (IPOHE); assay: Test 8 field trial, preemergence; type: in vivo, Ipomoea hederacea
Source text: (§3) Corn seeds (hybrid ‘Pioneer 31G96’) were planted in mid spring season, 3.8 cm deep in a clay loam soil having 2% organic matter and a pH of 6.6. Plots were 6.1 m long by 3.0 m wide with rows spaced 76 cm apart. Seeds were spaced 15 cm apart within the rows. The field was managed using conventional tillage practices. […] A few of the weed species could not be evaluated at every timing. […] Results are the means of the three replicates.

[3] = test system: giant foxtail (SETFA); assay: Test 6 field trial, postemergence; type: in vivo, Setaria faberi
Source text: Corn seeds (hybrid ‘Pioneer 35Y62’) were planted in mid spring season, 3.8 cm deep in a silt loam soil having 4% organic matter and a pH of 5.8. Plots were 10.7 m long by 1.5 m wide with rows spaced 76 cm apart. Seeds were spaced 18 cm apart within the rows. The field was managed using conventional tillage practices. […] All treatments included a surfactant except glufosinate treatments, both alone and in combination. […] Results are summarized in Table 6 and are the means of the three replicates.

[4] = test system: common ragweed (AMBEL); assay: Test 8 field trial, preemergence; type: in vivo, Ambrosia artemisiifolia
Source text: as §3

[5] = test system: velvetleaf (ABUTH); assay: Test 8 field trial, preemergence; type: in vivo, Abutilon theophrasti
Source text: as §3

[6] = test system: Pennsylvania smartweed (POLPY); assay: Test 8 field trial, preemergence; type: in vivo, Polygonum pensylvanicum
Source text: as §3

[7] = test system: Surinam grass (BRADC); assay: Test 11 field trial, preemergence; type: in vivo, Brachiaria decumbens; parameters: scale not given here; details: alone or + atrazine 1500 or metolachlor 2500
Source text: Corn seeds (hybrid ‘Pioneer 3041’) were planted in mid spring season, 5 cm deep in a clay soil having 2.6% organic matter and a pH of 5.6. Plots were 8 m long by 1.5 m wide with rows spaced 80 cm apart. Seeds were spaced 15 cm apart within the rows. The field was managed using conventional tillage practices. […] Treatments consisted of Compound 2 or
Goosegrass was not evaluated 16 or 91 days after application.

[8] = test system: shepherd's purse (CAPBP); assay: Test 5 field trial, postemergence; type: in vivo, Capsella bursa-pastoris
Source text: Corn seeds (hybrid ‘Pioneer 38H69’) were planted in mid spring season, 5.1 cm deep in a silty clay loam soil having 3% organic matter and a pH of 6.5. Plots were 9.1 m long by 3.0 m wide with rows spaced 76 cm apart. The field was managed using conventional tillage practices. […] All treatments included a surfactant except glufosinate treatments, both alone and in combination. […] Results are summarized in Table 5 and are the means of the three replicates.

[9] = test system: velvetleaf (ABUTH); assay: Test 10 field trial, preemergence; type: in vivo, Abutilon theophrasti; details: 28 DAA
Source text: (§4) Corn seeds (hybrid ‘Pioneer 33P65 RR’) were planted in mid spring season, 2.5 cm deep in a silt loam soil. Plots were 9.1 m long by 3.0 m wide with rows spaced 76 cm apart. The field was managed using conventional tillage practices. […] Results are the means of the three replicates.

[10] = test system: velvetleaf (ABUTH); assay: Test 1 field trial, preemergence; type: in vivo, Abutilon theophrasti
Source text: as §1, §2

[11] = test system: redroot pigweed (AMARE); assay: Test 1 field trial, preemergence; type: in vivo, Amaranthus retroflexus
Source text: as §1, §2

[12] = test system: Pennsylvania smartweed (POLPY); assay: Test 1 field trial, preemergence; type: in vivo, Polygonum pensylvanicum
Source text: as §1, §2

[13] = test system: common ragweed (AMBEL); assay: Test 10 field trial, preemergence; type: in vivo, Ambrosia artemisiifolia; details: 28 DAA
Source text: as §4

[14] = test system: corn (ZEAMD); assay: Test 1 field trial, preemergence; type: in vivo, Zea mays ssp. indentata; details: hybrid Pioneer 34N43, corn (Zea mays ssp. indentata), in vivo
Source text: as §1, §2

[15] = 28 DAA, g a.i./ha: Cpd 2 50, S-Metolachlor 1870
[16] = 28 DAA, g a.i./ha: Cpd 2 100, Atrazine 1680, S-Metolachlor 1870
[17] = 28 DAA, g a.i./ha: Cpd 2 150, S-Metolachlor 1870
[18] = 56 DAA, g a.i./ha: Cpd 2 50, S-Metolachlor 1870
[19] = 56 DAA, g a.i./ha: Cpd 2 100, Atrazine 1680, S-Metolachlor 1870
[20] = 56 DAA, g a.i./ha: Cpd 2 150, S-Metolachlor 1870
[21] = 19 DAA, g a.i./ha: Cpd 2 50, S-Metolachlor 1870
[22] = 19 DAA, g a.i./ha: Cpd 2 100, Atrazine 1680, S-Metolachlor 1870
[23] = 19 DAA, g a.i./ha: Cpd 2 150, S-Metolachlor 1870
[24] = 29 DAA, g a.i./ha: Cpd 2 50, S-Metolachlor 1870
[25] = 29 DAA, g a.i./ha: Cpd 2 100, Atrazine 1680, S-Metolachlor 1870
[26] = 29 DAA, g a.i./ha: Cpd 2 150, S-Metolachlor 1870
[27] = g a.i./ha: Cpd 2 50, S-Metolachlor 1870
[28] = g a.i./ha: Cpd 2 100, Atrazine 1680, S-Metolachlor 1870
[29] = g a.i./ha: Cpd 2 150, S-Metolachlor 1870

COC(=O)c1nc(C2CC2)nc(N)c1Cl [Compound 2, methyl 6-amino-5-chloro-2-cyclopropyl-4-pyrimidinecarboxylate]
SETFA Obs [1, 15]: 0 | SETFA Obs [1, 16]: 0 | SETFA Obs [1, 17]: 0 | SETFA Obs [1, 18]: 0 | SETFA Obs [1, 19]: 0 | SETFA Obs [1, 20]: 0 | IPOHE Obs [2, 21]: 58% | IPOHE Obs [2, 22]: 78% | IPOHE Obs [2, 23]: 83% | IPOHE Obs [2, 24]: 72% | IPOHE Obs [2, 25]: 97% | IPOHE Obs [2, 26]: 96% | IPOHE Obs [2, 18]: 82% | IPOHE Obs [2, 19]: 100% | IPOHE Obs [2, 20]: 100% | SETFA Obs ([3]; 14 DAA, 30 g a.i./ha): 0% | SETFA Obs ([3]; 14 DAA, 60 g a.i./ha): 0% | SETFA Obs ([3]; 28 DAA, 30 g a.i./ha): 0% | SETFA Obs ([3]; 28 DAA, 60 g a.i./ha): 0% | AMBEL Obs [4, 21]: 36% | AMBEL Obs [4, 22]: 73% | AMBEL Obs [4, 23]: 83% | AMBEL Obs [4, 24]: 65% | AMBEL Obs [4, 25]: 88% | AMBEL Obs [4, 26]: 96% | AMBEL Obs [4, 18]: 52% | AMBEL Obs [4, 19]: 90% | AMBEL Obs [4, 20]: 97% | ABUTH Obs [5, 21]: 28% | ABUTH Obs [5, 22]: 45% | ABUTH Obs [5, 23]: 58% | ABUTH Obs [5, 24]: 43% | ABUTH Obs [5, 25]: 68% | ABUTH Obs [5, 26]: 90% | ABUTH Obs [5, 18]: 18% | ABUTH Obs [5, 19]: 60% | ABUTH Obs [5, 20]: 85% | POLPY Obs ([6]; 19 DAA, g a.i./ha: Cpd 2 50): 28% | POLPY Obs ([6]; 19 DAA, g a.i./ha: Cpd 2 100): 60% | POLPY Obs ([6]; 19 DAA, g a.i./ha: Cpd 2 150): 65% | POLPY Obs [6, 24]: 30% | POLPY Obs [6, 25]: 50% | POLPY Obs [6, 26]: 70% | POLPY Obs ([6]; 56 DAA, g a.i./ha: Cpd 2 50): 55% | POLPY Obs ([6]; 56 DAA, g a.i./ha: Cpd 2 100, Atrazine 1680): 75% | POLPY Obs ([6]; 56 DAA, g a.i./ha: Cpd 2 150): 95% | BRADC Obs ([7]; 16 DAA, Cpd 2/Cpd 1 at 62 g a.i./ha): 40 | BRADC Obs ([7]; 16 DAA, Cpd 2/Cpd 1 at 125 g a.i./ha): 60 | BRADC Obs ([7]; 30 DAA, Cpd 2/Cpd 1 at 62 g a.i./ha): 40 | BRADC Obs ([7]; 30 DAA, Cpd 2/Cpd 1 at 125 g a.i./ha): 70 | BRADC Obs ([7]; 44 DAA, Cpd 2/Cpd 1 at 62 g a.i./ha): 0 | BRADC Obs ([7]; 44 DAA, Cpd 2/Cpd 1 at 125 g a.i./ha): 60 | BRADC Obs ([7]; 62 DAA, Cpd 2/Cpd 1 at 62 g a.i./ha): 0 | BRADC Obs ([7]; 62 DAA, Cpd 2/Cpd 1 at 125 g a.i./ha): 0 | BRADC Obs ([7]; 91 DAA, Cpd 2/Cpd 1 at 62 g a.i./ha): 0 | BRADC Obs ([7]; 91 DAA, Cpd 2/Cpd 1 at 125 g a.i./ha): 0 | CAPBP Obs ([8]; 16 DAA, Cpd 2 30 g a.i./ha alone or with glufosinate 470 or glyphosate 1120): 25% | CAPBP Obs ([8]; 16 DAA, Cpd 2 60 g a.i./ha alone or with atrazine 1120, glufosinate 470 or glyphosate 1120): 28% | CAPBP Obs ([8]; 31 DAA, Cpd 2 30 g a.i./ha alone or with glufosinate 470 or glyphosate 1120): 0% | CAPBP Obs ([8]; 31 DAA, Cpd 2 60 g a.i./ha alone or with atrazine 1120, glufosinate 470 or glyphosate 1120): 2% | ABUTH Obs [9, 27]: 7% | ABUTH Obs [9, 28]: 7% | ABUTH Obs [9, 29]: 13% | ABUTH Obs [10, 15]: 0 | ABUTH Obs [10, 16]: 0 | ABUTH Obs [10, 17]: 0 | ABUTH Obs [10, 18]: 0 | ABUTH Obs [10, 19]: 0 | ABUTH Obs [10, 20]: 10 | AMARE Obs [11, 15]: 0 | AMARE Obs [11, 16]: 7 | AMARE Obs [11, 17]: 58 | AMARE Obs [11, 18]: 7 | AMARE Obs [11, 19]: 55 | AMARE Obs [11, 20]: 100 | POLPY Obs [12, 15]: 0 | POLPY Obs [12, 16]: 0 | POLPY Obs [12, 17]: 0 | POLPY Obs [12, 18]: 0 | POLPY Obs [12, 19]: 0 | POLPY Obs [12, 20]: 0 | AMBEL Obs [13, 27]: 5% | AMBEL Obs [13, 28]: 5% | AMBEL Obs [13, 29]: 20% | ZEAMD Obs ([14]; 28 days after application): 0 | ZEAMD Obs ([14]; 56 days after application): 0
